Data taken from PubChem BioAssay (NCI).
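Values below derive from 48-hour exposures of cells grown in 96-well plates, with endpoints linearly interpolated between the two concentrations bracketing the appropriate inhibition level. GI50: concentration for 50% inhibition of growth. TGI denotes the concentration required for complete inhibition of growth.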

Key:
Assay in all cases: growth of human tumour cells (NCI), 48 h
TK-10 renal = tested on: TK-10 renal
KM12 colon = tested on: KM12 colon
NCI-H460 lung = tested on: NCI-H460 lung
A498 renal = tested on: A498 renal
SW-620 colon = tested on: SW-620 colon
UO-31 renal = tested on: UO-31 renal
SK-MEL-2 melanoma = tested on: SK-MEL-2 melanoma
OVCAR-8 ovarian = tested on: OVCAR-8 ovarian
NCI-H226 lung = tested on: NCI-H226 lung
HCT-116 colon = tested on: HCT-116 colon
NCI-H522 lung = tested on: NCI-H522 lung

Row | SMILES | TGI (TK-10 renal) | TGI (KM12 colon) | TGI (NCI-H460 lung) | TGI (A498 renal) | TGI (SW-620 colon) | TGI (UO-31 renal) | TGI (SK-MEL-2 melanoma) | TGI (OVCAR-8 ovarian) | TGI (NCI-H226 lung) | TGI (HCT-116 colon) | TGI (NCI-H522 lung) | GI50 (TK-10 renal) | GI50 (KM12 colon) | GI50 (NCI-H460 lung) | GI50 (A498 renal) | GI50 (SW-620 colon) | GI50 (SK-MEL-2 melanoma) | GI50 (OVCAR-8 ovarian) | GI50 (NCI-H226 lung) | GI50 (HCT-116 colon)
1 | O=C(c1ccc2ccccc2c1)N(Cc1cccnc1)C(=S)N(Cc1cccnc1)C(=O)c1ccc2ccccc2c1 | 78.9 µM | 40 µM | 95.7 µM | > 100 µM | > 100 µM | 97.8 µM | 75.7 µM | 66.5 µM | > 100 µM | > 100 µM | > 100 µM | – | – | – | – | – | – | – | – | –
2 | C=C1CC[C@@H](Br)C(C)(C)[C@]12CCC(C)(O)C(Cl)C2 (some centres undefined) | 78.4 µM | 33.8 µM | 32.1 µM | 44.7 µM | 27.2 µM | 32 µM | 39.7 µM | 37 µM | 31 µM | 32.3 µM | 32 µM | – | – | – | – | – | – | – | – | –
3 | CCOC(=O)[C@H]1Nc2c(cccc2[N+](=O)[O-])[C@H]2OCC[C@@H]12 | > 100 µM | > 100 µM | > 100 µM | – | > 100 µM | > 100 µM | > 100 µM | > 100 µM | > 100 µM | > 100 µM | > 100 µM | – | – | – | – | – | – | – | – | –
4 | CC[C@H](Nc1nc(N)nc(C)c1C#N)c1nc2cccc(NCc3ccc(C(=O)NO)cc3)c2c(=O)n1-c1ccccc1 | 6.88 µM | 3.29 µM | 4.76 µM | 2.42 µM | 3.92 µM | – | 6.21 µM | 6.83 µM | 4.13 µM | 4.34 µM | – | 2.02 µM | 1.7 µM | 1.85 µM | 1.04 µM | 1.7 µM | 2.43 µM | 2.19 µM | 1.61 µM | 1.82 µM
5 | CC(=O)O[C@H]1CC[C@@]2(C)C(=CC[C@@H]3[C@@H]2CC[C@]2(C)Nc4c(cnn4S(C)(=O)=O)C[C@@H]32)C1 | – | > 100 µM | > 100 µM | > 100 µM | – | > 100 µM | > 100 µM | > 100 µM | > 100 µM | – | > 100 µM | – | – | – | – | – | – | – | – | –
6 | O=C(O)c1ccc([N+]2=Cn3c(nc4ccccc43)C2)cc1 | > 100 µM | > 100 µM | > 100 µM | > 100 µM | > 100 µM | > 100 µM | > 100 µM | > 100 µM | > 100 µM | > 100 µM | > 100 µM | – | – | – | – | – | – | – | – | –
7 | O=C1C(c2c(O)[nH]c3ccc(S(=O)(=O)O)cc23)=Nc2ccc(Br)cc21 | > 100 µM | > 100 µM | > 100 µM | > 100 µM | > 100 µM | > 100 µM | > 100 µM | > 100 µM | > 100 µM | > 100 µM | > 100 µM | – | – | – | – | – | – | – | – | –
8 | C/C(=N\Oc1cc(Cl)ncn1)c1ccccn1 | > 100 µM | > 100 µM | 67.9 µM | – | > 100 µM | > 100 µM | > 100 µM | > 100 µM | > 100 µM | > 100 µM | 39.4 µM | – | – | – | – | – | – | – | – | –
9 | CCC1(CCSC(=N)N)C(=O)NC(=O)NC1=O | > 100 µM | > 100 µM | > 100 µM | > 100 µM | > 100 µM | > 100 µM | > 100 µM | > 100 µM | > 100 µM | > 100 µM | > 100 µM | – | – | – | – | – | – | – | – | –
10 | O=C(O)CCSCc1ccc(I)cc1 | > 100 µM | > 100 µM | > 100 µM | > 100 µM | > 100 µM | > 100 µM | > 100 µM | > 100 µM | > 100 µM | > 100 µM | > 100 µM | – | – | – | – | – | – | – | – | –
11 | CCCCCCCCCCCCCCCC(=O)OCC1CCCN2CCCCC12 (centres undefined) | > 100 µM | > 100 µM | > 100 µM | > 100 µM | > 100 µM | > 100 µM | > 100 µM | > 100 µM | > 100 µM | > 100 µM | – | – | – | – | – | – | – | – | – | –
12 | O=C1Nc2ccccc2S/C1=C\c1cccc(C(F)(F)F)c1 | > 100 µM | > 100 µM | > 100 µM | > 100 µM | > 100 µM | > 100 µM | > 100 µM | > 100 µM | > 100 µM | > 100 µM | > 100 µM | – | – | – | – | – | – | – | – | –
13 | CCOC(=O)CC1(O)CCCCC1(Sc1ccc(C)cc1)Sc1ccc(C)cc1 (centres undefined) | > 100 µM | > 100 µM | > 100 µM | > 100 µM | > 100 µM | > 100 µM | 65.9 µM | > 100 µM | > 100 µM | > 100 µM | 51 µM | – | – | – | – | – | – | – | – | –
14 | O=C(CCl)NC(Cc1ccc(F)cc1)C(=O)O (centres undefined) | – | > 100 µM | > 100 µM | > 100 µM | > 100 µM | > 100 µM | > 100 µM | > 100 µM | > 100 µM | > 100 µM | > 100 µM | – | – | – | – | – | – | – | – | –
15 | Cc1ccc(C[P+]2(c3ccccc3)CCCCC2)cc1 | > 100 µM | > 100 µM | > 100 µM | > 100 µM | > 100 µM | > 100 µM | 80.6 µM | > 100 µM | > 100 µM | > 100 µM | > 100 µM | – | – | – | – | – | – | – | – | –
16 | CC(=O)OC/C=C/Cn1ncc(=O)[nH]c1=O | – | > 100 µM | > 100 µM | > 100 µM | > 100 µM | > 100 µM | > 100 µM | > 100 µM | > 100 µM | – | > 100 µM | – | – | – | – | – | – | – | – | –
17 | CC(C)OC(=O)C1=C(O)c2ccccc2S(=O)(=O)N1 | > 100 µM | > 100 µM | > 100 µM | > 100 µM | > 100 µM | – | > 100 µM | > 100 µM | > 100 µM | > 100 µM | > 100 µM | – | – | – | – | – | – | – | – | –
18 | N=c1nc2n(cc1F)[C@@H]1O[C@H](CO)[C@@H](O)[C@@H]1O2 | > 100 µM | > 100 µM | > 36 µM | > 100 µM | > 100 µM | > 42.6 µM | > 100 µM | > 100 µM | > 100 µM | > 100 µM | > 74.7 µM | – | – | – | – | – | – | – | – | –
19 | O=C1Nc2ccccc2S/C1=C\c1ccccc1C(F)(F)F | > 100 µM | > 100 µM | > 100 µM | – | > 100 µM | > 100 µM | > 100 µM | > 100 µM | > 100 µM | > 100 µM | > 100 µM | – | – | – | – | – | – | – | – | –
20 | O=[As](O)(O)c1ccc(N=Nc2ccc([As](=O)(O)O)cc2)cc1 | > 100 µM | > 100 µM | > 100 µM | > 100 µM | > 100 µM | > 100 µM | > 100 µM | > 100 µM | > 100 µM | > 100 µM | > 100 µM | – | – | – | – | – | – | – | – | –
21 | Cc1ccc([N+](=O)[O-])cc1NC(=O)C(=O)C(C(=O)c1ccccc1F)C1OC(=O)c2ccccc21 (centres undefined) | > 100 µM | > 100 µM | > 100 µM | > 100 µM | > 100 µM | > 100 µM | > 100 µM | 90.8 µM | 69.6 µM | 91.8 µM | 59.2 µM | – | – | – | – | – | – | – | – | –
22 | Oc1c2c(c3c4c1N=CC=4CCN=3)-c1c(Br)cc(Br)cc1CCN2 | – | 9.21 µM | 12 µM | 24.7 µM | 6.03 µM | 23.1 µM | 13.5 µM | 12.1 µM | 16.8 µM | 4.47 µM | 4.2 µM | – | – | – | – | – | – | – | – | –
23 | O=[N+]([O-])c1ccc2c(c1)Nc1c3ccccc3nc3cccc-2c13 | 17.3 µM | > 100 µM | 12.5 µM | > 100 µM | 15.8 µM | 28.9 µM | 39.5 µM | 40.4 µM | > 93.6 µM | 28.8 µM | 33.2 µM | – | – | – | – | – | – | – | – | –
24 | O=C(N/C(=C\c1cccc([N+](=O)[O-])c1)c1nc2[nH]c(=S)[nH]c(=O)c2[nH]1)c1ccccc1 | – | > 100 µM | > 100 µM | > 100 µM | > 100 µM | > 100 µM | > 100 µM | > 100 µM | > 100 µM | > 100 µM | > 100 µM | – | – | – | – | – | – | – | – | –
25 | Nc1nncc2c1ccn2C1OC(CO)C(O)C1O (centres undefined) | > 100 µM | > 100 µM | > 100 µM | > 100 µM | > 100 µM | > 100 µM | > 100 µM | > 100 µM | > 100 µM | > 100 µM | – | – | – | – | – | – | – | – | – | –
26 | Cc1ccc(S(=O)(=O)N/N=c2\c(C)c(C3=NS(=O)(=O)c4cc(S(N)(=O)=O)c(Cl)cc4N3)oc3c(Cl)cc(Cl)cc23)cc1 | > 100 µM | > 100 µM | > 100 µM | > 100 µM | 22.9 µM | > 100 µM | > 100 µM | > 100 µM | > 100 µM | > 100 µM | – | – | – | – | – | – | – | – | – | –
27 | Nc1c(-c2nc3ccccc3o2)sc(=S)n1-c1ccc(Cl)cc1 | > 100 µM | > 100 µM | > 100 µM | 99.7 µM | – | > 100 µM | 47.8 µM | 30.2 µM | 67.1 µM | 29.3 µM | 49.7 µM | – | – | – | – | – | – | – | – | –
28 | O=C(O)c1cc2cc(c1)N=Cc1ccccc1OCc1cccc(n1)COc1ccccc1C=N2 | > 25 µM | > 25 µM | > 25 µM | > 25 µM | > 25 µM | > 25 µM | > 25 µM | > 25 µM | > 25 µM | > 25 µM | > 25 µM | – | – | – | – | – | – | – | – | –
29 | Cc1cc2c(cc1C)[n+](=O)c(C#N)c(Cl)n2[O-] | 27.9 µM | – | 24.2 µM | 39.5 µM | 41.6 µM | 32.2 µM | 92.5 µM | 53.2 µM | > 100 µM | 32 µM | 26.3 µM | – | – | – | – | – | – | – | – | –
